The target of assay [1] is T1, Tyrosine--tRNA ligase, cytoplasmic (Homo sapiens, UniProt P54577).
T1 sequence (P54577 whole entry): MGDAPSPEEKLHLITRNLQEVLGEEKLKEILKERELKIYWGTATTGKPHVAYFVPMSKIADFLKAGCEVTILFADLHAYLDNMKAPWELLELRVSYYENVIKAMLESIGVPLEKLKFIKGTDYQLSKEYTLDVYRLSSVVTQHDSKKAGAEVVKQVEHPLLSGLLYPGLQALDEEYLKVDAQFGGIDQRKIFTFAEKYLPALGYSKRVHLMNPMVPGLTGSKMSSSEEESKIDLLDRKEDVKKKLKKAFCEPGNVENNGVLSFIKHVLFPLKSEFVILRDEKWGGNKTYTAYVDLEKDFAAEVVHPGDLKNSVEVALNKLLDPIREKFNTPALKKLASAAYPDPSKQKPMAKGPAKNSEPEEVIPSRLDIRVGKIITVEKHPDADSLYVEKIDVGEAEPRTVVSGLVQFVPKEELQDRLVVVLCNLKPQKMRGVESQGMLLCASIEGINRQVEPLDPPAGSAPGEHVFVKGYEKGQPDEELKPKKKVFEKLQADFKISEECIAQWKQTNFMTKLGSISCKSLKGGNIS

The target in assay [2] is Mitogen-activated protein kinase kinase kinase 4 (Homo sapiens, UniProt Q9Y6R4).
Mitogen-activated protein kinase kinase kinase 4, sequence (Q9Y6R4 whole entry): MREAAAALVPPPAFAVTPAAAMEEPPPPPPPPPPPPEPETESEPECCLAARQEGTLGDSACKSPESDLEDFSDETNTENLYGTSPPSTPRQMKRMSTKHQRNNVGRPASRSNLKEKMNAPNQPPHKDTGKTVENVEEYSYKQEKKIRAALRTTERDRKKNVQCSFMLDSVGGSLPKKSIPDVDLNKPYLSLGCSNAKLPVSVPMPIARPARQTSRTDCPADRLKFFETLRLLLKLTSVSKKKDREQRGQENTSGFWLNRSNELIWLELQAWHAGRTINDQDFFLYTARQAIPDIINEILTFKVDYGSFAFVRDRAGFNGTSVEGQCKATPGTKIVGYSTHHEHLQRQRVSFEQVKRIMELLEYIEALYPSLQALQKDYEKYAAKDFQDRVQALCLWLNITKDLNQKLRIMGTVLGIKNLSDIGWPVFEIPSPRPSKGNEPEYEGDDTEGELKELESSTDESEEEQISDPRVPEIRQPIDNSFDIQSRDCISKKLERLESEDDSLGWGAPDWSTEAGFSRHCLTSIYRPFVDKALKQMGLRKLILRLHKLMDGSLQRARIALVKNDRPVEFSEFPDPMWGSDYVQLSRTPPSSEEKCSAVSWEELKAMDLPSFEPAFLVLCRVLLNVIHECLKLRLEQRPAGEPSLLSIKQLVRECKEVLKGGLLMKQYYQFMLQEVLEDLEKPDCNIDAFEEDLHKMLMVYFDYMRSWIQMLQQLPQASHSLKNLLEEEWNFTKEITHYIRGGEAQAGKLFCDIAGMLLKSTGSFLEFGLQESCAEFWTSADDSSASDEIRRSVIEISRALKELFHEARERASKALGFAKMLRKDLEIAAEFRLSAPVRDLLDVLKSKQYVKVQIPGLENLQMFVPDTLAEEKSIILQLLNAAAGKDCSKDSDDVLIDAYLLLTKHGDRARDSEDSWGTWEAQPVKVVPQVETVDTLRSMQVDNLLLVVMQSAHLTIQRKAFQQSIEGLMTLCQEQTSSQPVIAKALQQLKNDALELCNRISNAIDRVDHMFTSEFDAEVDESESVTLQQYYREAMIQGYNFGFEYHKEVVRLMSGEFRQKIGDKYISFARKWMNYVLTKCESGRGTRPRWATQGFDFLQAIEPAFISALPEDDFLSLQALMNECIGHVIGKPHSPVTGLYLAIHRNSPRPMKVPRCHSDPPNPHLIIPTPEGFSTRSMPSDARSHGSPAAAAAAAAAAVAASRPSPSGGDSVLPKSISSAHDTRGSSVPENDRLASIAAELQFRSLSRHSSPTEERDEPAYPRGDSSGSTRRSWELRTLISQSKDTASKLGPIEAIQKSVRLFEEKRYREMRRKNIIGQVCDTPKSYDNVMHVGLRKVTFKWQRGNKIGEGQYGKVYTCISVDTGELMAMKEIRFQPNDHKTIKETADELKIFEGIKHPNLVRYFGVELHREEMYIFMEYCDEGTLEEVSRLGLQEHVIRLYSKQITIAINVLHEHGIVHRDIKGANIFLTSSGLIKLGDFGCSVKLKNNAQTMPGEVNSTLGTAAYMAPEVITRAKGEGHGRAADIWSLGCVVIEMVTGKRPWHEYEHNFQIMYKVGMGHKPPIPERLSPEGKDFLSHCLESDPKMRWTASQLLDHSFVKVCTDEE
For assay [3], the target named is Serine/threonine-protein kinase MRCK beta (Homo sapiens, UniProt Q9Y5S2).
Serine/threonine-protein kinase MRCK beta, sequence (Q9Y5S2 whole entry): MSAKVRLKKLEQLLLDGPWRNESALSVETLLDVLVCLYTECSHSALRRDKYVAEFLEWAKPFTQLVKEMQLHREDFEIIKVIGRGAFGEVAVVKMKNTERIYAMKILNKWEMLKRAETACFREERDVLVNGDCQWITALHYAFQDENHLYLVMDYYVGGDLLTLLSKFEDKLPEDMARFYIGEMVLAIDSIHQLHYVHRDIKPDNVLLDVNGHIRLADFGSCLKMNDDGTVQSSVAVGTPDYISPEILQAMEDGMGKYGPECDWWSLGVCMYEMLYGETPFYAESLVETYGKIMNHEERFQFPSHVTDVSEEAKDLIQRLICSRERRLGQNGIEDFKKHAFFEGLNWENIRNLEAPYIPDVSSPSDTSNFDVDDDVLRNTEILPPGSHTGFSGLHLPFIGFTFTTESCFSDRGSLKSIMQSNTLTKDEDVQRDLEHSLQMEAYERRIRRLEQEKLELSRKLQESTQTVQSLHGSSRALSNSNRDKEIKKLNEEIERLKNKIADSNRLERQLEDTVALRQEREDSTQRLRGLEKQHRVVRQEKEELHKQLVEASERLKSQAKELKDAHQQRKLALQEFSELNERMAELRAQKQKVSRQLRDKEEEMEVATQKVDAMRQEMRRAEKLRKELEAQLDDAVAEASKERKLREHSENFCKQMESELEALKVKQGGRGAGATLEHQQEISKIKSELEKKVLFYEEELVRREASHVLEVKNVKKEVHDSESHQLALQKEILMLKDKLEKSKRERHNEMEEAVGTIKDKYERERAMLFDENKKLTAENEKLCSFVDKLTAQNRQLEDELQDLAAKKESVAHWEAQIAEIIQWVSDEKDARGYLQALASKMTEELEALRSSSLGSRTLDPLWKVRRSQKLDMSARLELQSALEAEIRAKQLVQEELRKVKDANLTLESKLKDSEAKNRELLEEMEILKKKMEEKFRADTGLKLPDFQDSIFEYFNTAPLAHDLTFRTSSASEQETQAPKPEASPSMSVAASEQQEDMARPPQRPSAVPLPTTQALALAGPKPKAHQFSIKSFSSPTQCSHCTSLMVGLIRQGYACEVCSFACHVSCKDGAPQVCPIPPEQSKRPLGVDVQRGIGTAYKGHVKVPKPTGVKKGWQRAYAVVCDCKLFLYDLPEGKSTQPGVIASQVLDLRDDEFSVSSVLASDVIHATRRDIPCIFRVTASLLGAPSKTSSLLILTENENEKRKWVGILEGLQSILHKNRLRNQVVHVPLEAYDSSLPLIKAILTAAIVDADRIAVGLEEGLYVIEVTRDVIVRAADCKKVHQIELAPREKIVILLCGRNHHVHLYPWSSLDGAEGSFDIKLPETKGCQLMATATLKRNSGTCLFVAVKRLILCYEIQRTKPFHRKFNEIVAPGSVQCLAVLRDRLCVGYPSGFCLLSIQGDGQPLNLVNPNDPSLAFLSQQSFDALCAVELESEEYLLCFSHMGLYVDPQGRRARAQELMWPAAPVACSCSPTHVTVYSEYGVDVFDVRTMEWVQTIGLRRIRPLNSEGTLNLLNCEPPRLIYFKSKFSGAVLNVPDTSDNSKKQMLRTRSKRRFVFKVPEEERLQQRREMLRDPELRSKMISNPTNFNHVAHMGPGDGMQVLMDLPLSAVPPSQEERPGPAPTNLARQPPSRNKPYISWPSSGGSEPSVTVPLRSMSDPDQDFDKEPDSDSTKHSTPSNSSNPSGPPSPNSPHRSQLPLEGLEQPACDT
The target of assay [4] is ATP-dependent RNA helicase DDX3X (Homo sapiens, UniProt O00571).
ATP-dependent RNA helicase DDX3X, sequence (O00571 whole entry): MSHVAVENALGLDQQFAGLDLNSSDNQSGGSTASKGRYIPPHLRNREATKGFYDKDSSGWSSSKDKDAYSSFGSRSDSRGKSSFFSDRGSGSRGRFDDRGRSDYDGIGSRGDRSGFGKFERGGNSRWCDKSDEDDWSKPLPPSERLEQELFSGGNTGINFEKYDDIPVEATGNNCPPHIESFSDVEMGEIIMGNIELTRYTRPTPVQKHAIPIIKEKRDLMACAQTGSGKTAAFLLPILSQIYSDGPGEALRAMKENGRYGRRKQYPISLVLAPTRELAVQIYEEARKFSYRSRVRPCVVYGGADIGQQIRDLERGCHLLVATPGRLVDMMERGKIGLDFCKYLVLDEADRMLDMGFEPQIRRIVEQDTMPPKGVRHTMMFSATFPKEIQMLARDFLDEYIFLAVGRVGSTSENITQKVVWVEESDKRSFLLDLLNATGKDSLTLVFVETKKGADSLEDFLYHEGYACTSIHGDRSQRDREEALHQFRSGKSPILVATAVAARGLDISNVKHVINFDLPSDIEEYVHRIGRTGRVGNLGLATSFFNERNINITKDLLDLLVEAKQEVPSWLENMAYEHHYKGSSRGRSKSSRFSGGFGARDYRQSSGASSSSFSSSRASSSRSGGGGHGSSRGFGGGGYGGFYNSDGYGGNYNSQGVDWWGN
Assay [5] deals with Tyrosine-protein kinase JAK1 (Homo sapiens, UniProt P23458).
Assay [6] addresses T2, Inhibitor of nuclear factor kappa-B kinase subunit epsilon (Homo sapiens, UniProt Q14164).
T2 sequence (Q14164 whole entry): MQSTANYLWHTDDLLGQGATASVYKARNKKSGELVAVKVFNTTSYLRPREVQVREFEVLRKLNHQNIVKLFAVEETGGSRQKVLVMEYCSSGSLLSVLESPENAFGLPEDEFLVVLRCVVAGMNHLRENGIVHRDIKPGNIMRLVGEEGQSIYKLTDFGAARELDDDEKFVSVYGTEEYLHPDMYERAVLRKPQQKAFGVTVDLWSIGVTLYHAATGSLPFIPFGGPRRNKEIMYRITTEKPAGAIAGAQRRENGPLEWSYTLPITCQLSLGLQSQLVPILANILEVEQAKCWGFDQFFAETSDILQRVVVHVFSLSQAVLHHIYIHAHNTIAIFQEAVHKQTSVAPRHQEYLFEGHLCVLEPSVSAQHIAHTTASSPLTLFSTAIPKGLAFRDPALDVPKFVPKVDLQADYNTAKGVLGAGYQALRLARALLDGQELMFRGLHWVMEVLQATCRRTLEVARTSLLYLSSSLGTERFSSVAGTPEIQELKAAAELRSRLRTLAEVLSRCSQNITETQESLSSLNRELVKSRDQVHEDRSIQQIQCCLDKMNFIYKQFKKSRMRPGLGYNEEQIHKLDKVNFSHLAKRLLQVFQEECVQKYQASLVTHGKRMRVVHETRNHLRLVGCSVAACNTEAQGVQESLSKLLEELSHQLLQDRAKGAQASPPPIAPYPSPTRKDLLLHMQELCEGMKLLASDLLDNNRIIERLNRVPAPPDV

Assay [7] concerns the target T3, Serine/threonine-protein kinase 3 (Homo sapiens, UniProt Q13188).
T3 sequence (Q13188 whole entry): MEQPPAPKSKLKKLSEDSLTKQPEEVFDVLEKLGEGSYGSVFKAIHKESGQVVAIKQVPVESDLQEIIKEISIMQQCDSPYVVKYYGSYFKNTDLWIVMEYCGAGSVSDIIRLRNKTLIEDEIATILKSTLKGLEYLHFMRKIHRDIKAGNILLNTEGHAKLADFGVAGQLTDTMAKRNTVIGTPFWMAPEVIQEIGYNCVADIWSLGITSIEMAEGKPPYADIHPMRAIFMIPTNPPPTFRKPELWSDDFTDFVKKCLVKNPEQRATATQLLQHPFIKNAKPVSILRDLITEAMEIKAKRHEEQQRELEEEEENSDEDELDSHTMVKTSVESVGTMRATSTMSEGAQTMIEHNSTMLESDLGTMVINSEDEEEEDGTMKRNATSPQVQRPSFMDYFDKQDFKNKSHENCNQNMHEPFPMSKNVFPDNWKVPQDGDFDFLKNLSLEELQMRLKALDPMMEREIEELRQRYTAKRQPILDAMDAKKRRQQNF

Assay [8] concerns the target Serine/threonine-protein kinase 26 (Homo sapiens, UniProt Q9P289).
Assay [9] has as its target T4, Ephrin type-B receptor 3 (Homo sapiens, UniProt P54753).
T4 sequence (P54753 whole entry): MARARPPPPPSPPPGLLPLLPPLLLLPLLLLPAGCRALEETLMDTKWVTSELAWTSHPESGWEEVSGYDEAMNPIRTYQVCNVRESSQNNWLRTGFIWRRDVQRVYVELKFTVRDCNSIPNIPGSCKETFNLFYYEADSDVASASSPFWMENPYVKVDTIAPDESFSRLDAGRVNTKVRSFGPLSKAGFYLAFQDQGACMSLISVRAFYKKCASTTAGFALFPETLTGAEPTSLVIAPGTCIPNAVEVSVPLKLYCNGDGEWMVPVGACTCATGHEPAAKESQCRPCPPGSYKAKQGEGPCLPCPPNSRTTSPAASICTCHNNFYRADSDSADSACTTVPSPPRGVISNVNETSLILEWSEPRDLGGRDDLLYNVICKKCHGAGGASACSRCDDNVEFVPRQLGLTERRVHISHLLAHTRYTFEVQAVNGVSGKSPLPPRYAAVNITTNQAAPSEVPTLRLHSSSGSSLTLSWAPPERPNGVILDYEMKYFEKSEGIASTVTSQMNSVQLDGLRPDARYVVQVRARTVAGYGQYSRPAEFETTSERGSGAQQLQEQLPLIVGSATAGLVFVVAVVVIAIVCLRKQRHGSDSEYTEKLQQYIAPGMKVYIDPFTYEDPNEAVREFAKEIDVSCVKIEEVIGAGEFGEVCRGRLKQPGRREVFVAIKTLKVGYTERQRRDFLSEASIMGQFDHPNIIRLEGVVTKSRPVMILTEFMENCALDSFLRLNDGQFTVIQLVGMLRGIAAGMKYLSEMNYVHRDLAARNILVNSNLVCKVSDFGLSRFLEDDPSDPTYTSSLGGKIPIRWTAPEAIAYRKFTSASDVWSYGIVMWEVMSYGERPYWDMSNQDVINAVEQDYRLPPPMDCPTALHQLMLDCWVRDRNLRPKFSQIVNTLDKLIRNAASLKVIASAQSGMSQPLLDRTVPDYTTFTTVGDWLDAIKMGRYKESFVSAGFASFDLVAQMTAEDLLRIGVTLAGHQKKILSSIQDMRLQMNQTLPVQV

The structures appear in SMILES notation. Activity calls are given as the source filed them. Cut-off read from the data, not from the text of the source, for most assays here: actives have a measured Kd and inactives only a lower limit. Bounds are passed on as bounds.
Note: in the data inactive means no Kd found up to 30 µM.

Serine/threonine-protein kinase 26, sequence (Q9P289 whole entry): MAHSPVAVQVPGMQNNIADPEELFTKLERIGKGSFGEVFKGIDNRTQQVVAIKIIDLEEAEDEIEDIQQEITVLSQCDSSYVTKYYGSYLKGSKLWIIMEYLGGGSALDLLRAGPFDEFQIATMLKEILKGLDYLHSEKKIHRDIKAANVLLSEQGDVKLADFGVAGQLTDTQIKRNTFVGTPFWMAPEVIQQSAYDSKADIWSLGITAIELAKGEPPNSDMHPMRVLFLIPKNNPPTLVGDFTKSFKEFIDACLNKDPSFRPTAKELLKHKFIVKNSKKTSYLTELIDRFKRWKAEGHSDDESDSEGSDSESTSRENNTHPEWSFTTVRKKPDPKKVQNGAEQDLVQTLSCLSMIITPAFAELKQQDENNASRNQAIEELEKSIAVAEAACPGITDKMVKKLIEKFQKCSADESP

Consider `CCc1nc(C(N)=O)c(Nc2ccc(N3CCC(N4CCN(C)CC4)CC3)c(OC)c2)nc1NC1CCOCC1` [GILTERITINIB], for which the Kd in [1] was > 30 µM (inactive); in assay [2] it was > 30 µM (inactive); in assay [3] it was > 30 µM (inactive); in [4], > 30 µM (inactive); in [5] it was > 30 µM (inactive); in assay [6], 1.47 µM (active). Further, the Kd was > 30 µM (inactive) in [7], 1.14 µM (active) in assay [8] and > 30 µM (inactive) in [9].

As for `Cc1cc(Nc2nc(N[C@@H](C)c3ncc(F)cn3)ncc2Cl)n[nH]1` [AZD-1480], the Kd in [1], in assay [2], in assay [3], in assay [4], in assay [5] and in assay [6] was > 30 µM (inactive) each time. Further, the equilibrium dissociation constant (Kd) was 0.86 µM (active) in assay [7], > 30 µM (inactive) in [8] and > 30 µM (inactive) in assay [9].

On to `Cc1ccc(C(=O)Nc2ccc(Oc3cc4cnn(C)c4cc3-c3cn[nH]c3)c(F)c2)c(=O)n1-c1ccc(F)cc1` [MERESTINIB], for which the Kd in assay [1], in assay [2], in assay [3], in assay [4], in assay [5] and in assay [6] was > 30 µM (inactive) in each case. Further, the Kd in assay [7], in assay [8] and in [9] was > 30 µM (inactive) in each case.

Take `C#Cc1cccc(Nc2ncnc3cc4c(cc23)OCCOCCOCCO4)c1` [ICOTINIB]: the Kd in assay [1], in [2], in assay [3], in assay [4], in assay [5] and in [6] was > 30 µM (inactive) in each case. For the same compound, the Kd in assay [7], in [8] and in assay [9] was > 30 µM (inactive) in each case.

Regarding `COc1cc(F)c(F)c(Nc2ccc(I)cc2F)c1NS(=O)(=O)C1(C[C@H](O)CO)CC1` [REFAMETINIB], the Kd in assay [1], in [2], in assay [3], in assay [4], in assay [5] and in assay [6] was > 30 µM (inactive) in each case. The Kd in assay [7], in assay [8] and in [9] was > 30 µM (inactive) in each case.

Turning to `O[C@H]1CC[C@H](Nc2ncc3nc(Nc4c(F)cc(F)cc4F)n([C@H]4CCOC4)c3n2)CC1` [TANZISERTIB], the Kd in [1], in [2], in [3], in [4], in assay [5] and in assay [6] was > 30 µM (inactive) in each case. The Kd in [7], in assay [8] and in assay [9] was > 30 µM (inactive) throughout.

On to `FC(F)(F)c1ccc(CNc2ccc(Cc3c[nH]c4ncc(Cl)cc34)cn2)cn1` [PEXIDARTINIB], for which the Kd in assay [1], in assay [2], in assay [3], in assay [4], in assay [5] and in assay [6] was > 30 µM (inactive) in each case. The Kd in assay [7], in assay [8] and in assay [9] was > 30 µM (inactive) throughout.

Regarding `CNC(=O)c1cc(COc2nnc(Nc3ccc(Cl)cc3)c3ccoc23)ccn1` [TELATINIB], the Kd in [1], in [2], in assay [3], in assay [4], in assay [5] and in [6] was > 30 µM (inactive) in each case. Further, the Kd in assay [7], in assay [8] and in [9] was > 30 µM (inactive) in each case.

Turning to `COc1cc2ncnc3c2cc1OCCCCCN(C)Cc1ccc(Br)cc1N3` [JNJ-26483327], the Kd in assay [1], in assay [2], in [3], in assay [4], in assay [5] and in [6] was > 30 µM (inactive) throughout. In addition, the Kd in [7], in assay [8] and in assay [9] was > 30 µM (inactive) in each case.

On to `CNC(=O)c1cccc(-c2ccc3c(N4CCOC[C@@H]4C)nc(N4CCOC[C@@H]4C)nc3n2)c1` [VISTUSERTIB], for which the Kd in [1], in assay [2], in assay [3], in assay [4], in assay [5] and in assay [6] was > 30 µM (inactive) each time. The Kd in assay [7], in assay [8] and in assay [9] was > 30 µM (inactive) in each case.

Consider `C=CCN(/C=C1/C(=O)O[C@H](COC)[C@@]2(C)C1=C(O)C(=O)C1=C2[C@H](OC(C)=O)C[C@]2(C)C(=O)CC[C@@H]12)CC=C` [SONOLISIB], for which the Kd in assay [2], in assay [3], in assay [4], in [5], in assay [6] and in assay [7] was > 30 µM (inactive) throughout. Further, the Kd in assay [8] and in [9] was > 30 µM (inactive) each time.

(Values after ChEMBL document CHEMBL3991601, “The target landscape of clinical kinase drugs” (Science, 2017).)
